Measurements: ChEMBL document CHEMBL1137874, “A new class of acyclic 2-alkyl-1,2-diaryl (E)-olefins as selective cyclooxygenase-2 (COX-2) inhibitors” (Bioorg Med Chem Lett, 2004)

Molecular target: T1, Prostaglandin G/H synthase 1 (Ovis aries, UniProt P05979)
T1 sequence (P05979 whole entry): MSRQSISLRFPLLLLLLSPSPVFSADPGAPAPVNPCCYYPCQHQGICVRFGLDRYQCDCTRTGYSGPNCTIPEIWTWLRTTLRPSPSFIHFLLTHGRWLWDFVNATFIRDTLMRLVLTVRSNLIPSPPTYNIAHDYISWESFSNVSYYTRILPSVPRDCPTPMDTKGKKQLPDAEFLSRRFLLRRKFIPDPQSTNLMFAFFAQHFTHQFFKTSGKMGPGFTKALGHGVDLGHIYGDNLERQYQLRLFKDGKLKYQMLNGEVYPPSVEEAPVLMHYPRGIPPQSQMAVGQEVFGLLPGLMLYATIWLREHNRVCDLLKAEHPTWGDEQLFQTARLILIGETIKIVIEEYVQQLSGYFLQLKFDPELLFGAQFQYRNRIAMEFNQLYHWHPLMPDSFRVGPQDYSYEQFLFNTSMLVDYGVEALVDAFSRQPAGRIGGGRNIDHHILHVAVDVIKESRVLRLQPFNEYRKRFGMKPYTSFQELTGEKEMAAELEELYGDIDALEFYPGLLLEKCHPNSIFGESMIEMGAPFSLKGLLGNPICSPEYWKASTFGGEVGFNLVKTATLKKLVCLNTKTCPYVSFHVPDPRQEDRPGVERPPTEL
Assay: In vitro inhibitory concentration against ovine Prostaglandin G/H synthase 1

Row | Structure (SMILES) | IC50 [µM]
1 | CCC/C(=C\c1ccccc1)c1ccc(S(C)(=O)=O)cc1 | > 100
2 | CCCCCC/C(=C\c1ccccc1)c1ccc(S(C)(=O)=O)cc1 | > 100
3 | CC/C(=C\c1ccc(C)cc1)c1ccc(S(C)(=O)=O)cc1 | 0.03
4 | CCCCCCC/C(=C\c1ccccc1)c1ccc(S(C)(=O)=O)cc1 | > 100
5 | CC/C(=C\c1ccccc1)c1ccc(S(C)(=O)=O)cc1 | > 100
